Several values for one entry are separate records, joined by “and”; a condition that tells them apart may be missing. Equal entries are not always repeated. Where two headings read alike, the source gives them in different places. Starred links: 1 amine or outer side, 2 acyl side, 3 side chain; linkers in the order of their positions; H or OH if unused. Non-standard residues stand in square brackets, D forms with d. Residues, ends and D or L forms follow the SMILES beside them. X1 = O=C([C@H](Cc1c([C@H]2O[C@H](CO)[C@@H](O)[C@H](O)[C@@H]2O)[nH]c2ccccc12)N[*:1])[*:2]; pGlu = O=C1CC[C@@H](C(=O)O)N1
System: Carausius morosus AKH receptor (Carmo-AKHR)
Assay: Calcium bioluminescence (aequorin) reporter assay, CHO-K1 cells stably expressing Carmo-AKHR
Type: cell-based
Conditions: for Fold-reduction in activity (receptor activation relative to Carmo-HrTH-II): ratio of EC50 relative to Carmo-HrTH-II; for Receptor activation (in words): dose-response or clonal line testing, luminescence
Procedure: Functional activation of Carmo-AKHR was carried out by following mammalian cell culture procedures as previously described ([20], [29]) with the following modifications. […] At 24 h post-transfection, cells were selected in DMEM:F12 media containing 10% heat-inactivated fetal bovine serum (Wisent, St. Bruno, QC), 1x antimycotic-antibiotic and 600 μg/mL geneticin (G418) until clonal recombinant cells were evident in transfected cells while no live cells were present in non-transfected CHO-K1 cells (control). Individual clonal recombinant colonies were seeded into separate wells of a 96 well cell-culture dish (Sarstedt Inc., Montreal, QC) and grown to confluence while maintaining geneticin selection. To identify clonal recombinant lines with optimal Carmo-AKHR activity yielding the greatest signal-to-noise ratio, individual clonal recombinant lines were assayed in the bioluminescence reporter assay as described previously ([30]). […] The recombinant cell line showing the optimal luminescent response with greatest signal-to-noise ratio was expanded for preparation of cryo-stocks and subsequent detailed investigation of receptor specificity. […] Bruno, QC), 250 μg/mL Geneticin (MilliporeSigma Canada Ltd., Oakville, ON) and 1X antimycotic-antibiotic (ThermoFisher Scientific, Whitby, ON). […] Transfection was completed with PolyJetTM DNA In Vitro Transfection Reagent (FroggaBio, Toronto, ON) following manufacturer recommendations for transfection of adherent cells. At 48 hours post-transfection, cells were detached from culture flasks using Dulbecco's PBS (Wisent, St. Bruno, QC) containing 5 mM Ethylenediaminetetraacetic acid (EDTA) and were prepared for the functional assay as previously described ([30]). […] Immediately after injection of the cells into each well, luminescence was measured for 20 s using a Synergy 2 Multi-Mode Microplate Reader (BioTek, Winooski, VT, USA). […] Data were analyzed using a one-way or two-way ANOVA and Tukey's multiple comparisons post-hoc test, with differences between treatments considered significant if p<0.05.

[1] = CHO-K1 stably expressing Carmo-AKHR, transiently aequorin, luminescence measured 20 s, from dose-response activation curves, 3 to 4 independent biological replicates, normalized to ATP maximum, read-out: EC50 value
[2] = minimal activity up to the highest concentration tested, read-out: EC50 value (M), not determinable: minimal activity

Row | EC50 [2] [M] | Compound | EC50 [1] [M] | Fold-reduction in activity (receptor activation relative to Carmo-HrTH-II) | Receptor activation (in words)
1 | – | C[C@H](NC(=O)[C@@H]1CCC(=O)N1)C(=O)N[C@H](C(=O)N[C@@H](Cc1ccccc1)C(=O)N[C@H](C(=O)N1CCC[C@H]1C(=O)N[C@@H](CC(N)=O)C(=O)N[C@@H](Cc1c[nH]c2ccccc12)C(=O)NCC(=O)N[C@H](C(N)=O)[C@@H](C)O)[C@@H](C)O)[C@@H](C)O [Ala^2-analog] ([pGlu]ATFTPNWGT-NH2) | 6.93e-07 | 9.42 fold | –
2 | – | CC(C)C[C@H](NC(=O)[C@@H]1CCC(=O)N1)C(=O)N[C@H](C(=O)N[C@@H](Cc1ccccc1)C(=O)N[C@@H](C)C(=O)N1CCC[C@H]1C(=O)N[C@@H](CC(N)=O)C(=O)N[C@@H](Cc1c[nH]c2ccccc12)C(=O)NCC(=O)N[C@H](C(N)=O)[C@@H](C)O)[C@@H](C)O [Ala^5-analog] ([pGlu]LTFAPNWGT-NH2) | 8.58e-05 | 1166.83 fold | –
3 | – | CC(C)C[C@H](NC(=O)[C@@H]1CCC(=O)N1)C(=O)N[C@H](C(=O)N[C@@H](Cc1ccccc1)C(=O)N[C@H](C(=O)N[C@@H](C)C(=O)N[C@@H](CC(N)=O)C(=O)N[C@@H](Cc1c[nH]c2ccccc12)C(=O)NCC(=O)N[C@H](C(N)=O)[C@@H](C)O)[C@@H](C)O)[C@@H](C)O [Ala^6-analog] ([pGlu]LTFTANWGT-NH2) | 4.04e-07 | 5.49 fold | –
4 | – | CC(C)C[C@H](NC(=O)[C@@H]1CCC(=O)N1)C(=O)N[C@H](C(=O)N[C@@H](Cc1ccccc1)C(=O)N[C@H](C(=O)N1CCC[C@H]1C(=O)N[C@@H](C)C(=O)N[C@@H](Cc1c[nH]c2ccccc12)C(=O)NCC(=O)N[C@H](C(N)=O)[C@@H](C)O)[C@@H](C)O)[C@@H](C)O [Ala^7-analog] ([pGlu]LTFTPAWGT-NH2) | 3.1e-07 | 4.21 fold | –
5 | > 0.0001 | CC(C)C[C@H](NC(=O)[C@@H]1CCC(=O)N1)C(=O)N[C@H](C(=O)N[C@@H](Cc1ccccc1)C(=O)N[C@H](C(=O)N1CCC[C@H]1C(=O)N[C@@H](CC(N)=O)C(=O)N[C@@H](C)C(=O)NCC(=O)N[C@H](C(N)=O)[C@@H](C)O)[C@@H](C)O)[C@@H](C)O [Ala^8-analog] ([pGlu]LTFTPNAGT-NH2) | – | >1360 fold | –
6 | – | CC(C)C[C@H](NC(=O)[C@@H]1CCC(=O)N1)C(=O)N[C@H](C(=O)N[C@@H](Cc1ccccc1)C(=O)N[C@H](C(=O)N1CCC[C@H]1C(=O)N[C@@H](CC(N)=O)C(=O)N[C@@H](Cc1c[nH]c2ccccc12)C(=O)N[C@@H](C)C(=O)N[C@H](C(N)=O)[C@@H](C)O)[C@@H](C)O)[C@@H](C)O [Ala^9-analog] ([pGlu]LTFTPNWAT-NH2) | 1.48e-06 | 20.18 fold | –
7 | – | CC(C)C[C@H](NC(=O)[C@@H]1CCC(=O)N1)C(=O)N[C@H](C(=O)N[C@@H](Cc1ccccc1)C(=O)N[C@H](C(=O)N1CCC[C@H]1C(=O)N[C@@H](CC(N)=O)C(=O)N[C@@H](Cc1c[nH]c2ccccc12)C(=O)NCC(=O)N[C@@H](C)C(N)=O)[C@@H](C)O)[C@@H](C)O [Ala^10-analog] ([pGlu]LTFTPNWGA-NH2) | 1.1e-08 | 0.15 fold | –
8 | > 0.0001 | CC(C)C[C@H](NC(=O)[C@@H]1CCC(=O)N1)C(=O)N[C@H](C(=O)N[C@@H](Cc1ccccc1)C(=O)N[C@H](C(=O)N1CCC[C@H]1C(=O)N[C@@H](CC(N)=O)C(=O)N[C@@H](Cc1c[nH]c2ccccc12)C(=O)NCC(=O)N[C@H](C(=O)O)[C@@H](C)O)[C@@H](C)O)[C@@H](C)O [Carmo-HrTH-II free acid] ([pGlu]LTFTPNWGT-OH) | – | >1360 fold | –
9 | > 0.0001 | CC(C)C[C@H](N)C(=O)N[C@H](C(=O)N[C@@H](Cc1ccccc1)C(=O)N[C@H](C(=O)N1CCC[C@H]1C(=O)N[C@@H](CC(N)=O)C(=O)N[C@@H](Cc1c[nH]c2ccccc12)C(=O)NCC(=O)N[C@H](C(N)=O)[C@@H](C)O)[C@@H](C)O)[C@@H](C)O [Carmo-HrTH-II minus pGlu] (H-LTFTPNWGT-NH2) | – | >1360 fold | –
10 | – | CC(C)C[C@H](NC(=O)[C@@H]1CCC(=O)N1)C(=O)N[C@H](C(=O)N[C@@H](Cc1ccccc1)C(=O)N[C@H](C(=O)N1CCC[C@H]1C(=O)N[C@@H](CC(N)=O)C(=O)N[C@@H](Cc1c[nH]c2ccccc12)C(=O)NCC(=O)N[C@H](C(N)=O)[C@@H](C)O)[C@@H](C)O)[C@@H](C)O [Carmo-HrTH-II] ([pGlu]LTFTPNWGT-NH2) | 7.36e-08 | – | –
11 | – | CC(C)C[C@H](NC(=O)[C@@H]1CCC(=O)N1)C(=O)N[C@H](C(=O)N[C@@H](Cc1ccccc1)C(=O)N[C@H](C(=O)N1CCC[C@H]1C(=O)N[C@@H](CC(N)=O)C(=O)N[C@@H](Cc1c([C@H]2O[C@H](CO)[C@@H](O)[C@H](O)[C@@H]2O)[nH]c2ccccc12)C(=O)NCC(=O)N[C@H](C(N)=O)[C@@H](C)O)[C@@H](C)O)[C@@H](C)O [Carmo-HrTH-I] ([pGlu]LTFTPN[X1]GT-NH2) | 8.97e-08 | 1.22 fold | –
12 | – | CC(C)C[C@H](NC(=O)[C@@H]1CCC(=O)N1)C(=O)N[C@@H](CC(N)=O)C(=O)N[C@@H](Cc1ccccc1)C(=O)N[C@@H](CO)C(=O)N1CCC[C@H]1C(=O)NCC(=O)N[C@@H](Cc1c[nH]c2ccccc12)C(N)=O [Panbo-RPCH] ([pGlu]LNFSPGW-NH2) | 3.35e-05 | 455 fold and 455.74 fold | –
13 | > 0.0001 | CC(C)[C@H](NC(=O)[C@@H]1CCC(=O)N1)C(=O)N[C@@H](CC(N)=O)C(=O)N[C@@H](Cc1ccccc1)C(=O)N[C@@H](CO)C(=O)N1CCC[C@H]1C(=O)N[C@@H](CC(N)=O)C(=O)N[C@@H](Cc1c[nH]c2ccccc12)C(N)=O [Peram-CAH-I] ([pGlu]VNFSPNW-NH2) | – | >1360 fold | complete loss of efficacy
14 | – | CC[C@H](C)[C@H](NC(=O)[C@@H]1CCC(=O)N1)C(=O)N[C@H](C(=O)N[C@@H](Cc1ccccc1)C(=O)N[C@H](C(=O)N1CCC[C@H]1C(=O)N[C@@H](CC(N)=O)C(=O)N[C@@H](Cc1c[nH]c2ccccc12)C(N)=O)[C@@H](C)O)[C@@H](C)O [Polae-HrTH] ([pGlu]ITFTPNW-NH2) | 8.76e-06 | 120 fold and 119.12 fold | –
15 | – | CC(C)C[C@H](NC(=O)[C@@H]1CCC(=O)N1)C(=O)N[C@H](C(=O)N[C@@H](Cc1ccccc1)C(=O)N[C@H](C(=O)N1CCC[C@H]1C(=O)N[C@@H](CC(N)=O)C(=O)N[C@@H](Cc1c[nH]c2ccccc12)C(=O)NCC(N)=O)[C@@H](C)O)[C@@H](C)O [Triin-AKH] ([pGlu]LTFTPNWG-NH2) | 5.48e-07 | 7.45 fold | –
16 | > 0.0001 | CC(=O)N[C@@H](C)C(=O)N[C@@H](CC(C)C)C(=O)N[C@H](C(=O)N[C@@H](Cc1ccccc1)C(=O)N[C@H](C(=O)N1CCC[C@H]1C(=O)N[C@@H](CC(N)=O)C(=O)N[C@@H](Cc1c[nH]c2ccccc12)C(=O)NCC(=O)N[C@H](C(N)=O)[C@@H](C)O)[C@@H](C)O)[C@@H](C)O [[N-Ac. Ala]^1-analog] (Ac-ALTFTPNWGT-NH2) | – | >1360 fold | –
17 | – | [pGlu]LAFTPNWGT-NH2 [Ala^3-analog, alanine-substituted analog of Carmo-HrTH-II, position 3] | – | 1045.82 fold | –
18 | – | [pGlu]LTATPNWGT-NH2 [Ala^4-analog, alanine-substituted analog of Carmo-HrTH-II, position 4] | – | >1360 fold | –
19 | – | [pGlu]VTFSRDWNA-NH2 [Aedae-ACP, AKH/corazonin-related peptide of Aedes aegypti] | – | – | failed to activate the receptor at all tested doses
20 | – | pETFQYSRGWTN amide [Aedae-Crz, corazonin of the mosquito Aedes aegypti] | – | – | failed to activate the receptor at all tested doses
